Experimental findings from publication PMC10296061, “Inhibition of the Mitochondrial Carnitine/Acylcarnitine Carrier by Itaconate through Irreversible Binding to Cysteine 136: Possible Pathophysiological Implications” (Biomolecules, 2023) are described below.

For assay [1], the target named is T1, CAC C23V/C58V/C89S/C136V/C155V/C283S (C-less) mutant (Rattus norvegicus, UniProt P97521, C136V/C155V/C23V/C283S/C58V/C89S).
T1 construct: made in house; host or cells: E. coli C0214
T1 sequence (P97521 1-301 C23V/C58V/C89S/C136V/C155V/C283S): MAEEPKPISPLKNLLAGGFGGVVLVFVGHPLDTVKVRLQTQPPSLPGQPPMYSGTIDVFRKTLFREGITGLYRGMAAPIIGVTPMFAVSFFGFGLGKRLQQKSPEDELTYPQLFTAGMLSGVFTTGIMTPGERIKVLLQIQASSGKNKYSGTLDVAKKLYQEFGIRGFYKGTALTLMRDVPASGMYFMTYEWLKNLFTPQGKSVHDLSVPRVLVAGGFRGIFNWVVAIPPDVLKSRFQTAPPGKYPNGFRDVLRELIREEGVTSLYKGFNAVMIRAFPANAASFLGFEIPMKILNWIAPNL
In words: Transport assay in proteoliposomes, C-less CAC mutant. Type of assay: biochemical. The method, then: (§1) As previously described, the pMW7-WTratCAC recombinant plasmid was used for over-expressing the rat CAC [22]. The overlap extension method was used to introduce the mutations; in the main time, NdeI and HindIII restriction sites were also added using appropriate primers. The PCR products were purified by the QIAEX II Gel Extraction Kit (QIAGEN) and digested with NdeI and HindIII and then ligated into the pMW7. All mutations were verified by DNA sequencing. The resulting plasmid constructs were transformed into E. coli C0214. Overexpression, inclusion body fraction preparation, and purification of the CAC proteins were performed as previously described.
(§2) As previously described, recombinant CAC (WT and mutants) and ORC1 proteins were used for proteoliposome formation. For experiments with native CAC, ORC1, or ANT proteins, rat liver mitochondria, or HeLa cell mitochondria, the latter for the CAC alone, were first purified using the standard procedure of cell disruption and differential centrifugation. Then proteins were extracted using 3% Triton X-100 and reconstituted as described for the recombinant proteins. The concentration of intraliposomal carnitine and ornithine was 15 mM and 30 mM, respectively, in all samples.
(§3) To test the transport activity of the CAC, 550 μL of proteoliposomes was passed through a Sephadex G-75 column to remove the external substrate. Six hundred μL of the turbid eluate was collected, divided into samples of 100 μL each, and used for transport measurement by the inhibitor-stop method. Transport was started by adding 0.1 mM [^3H]carnitine ([^3H]ornitine or [^3H]ATP) to proteoliposome samples and stopped with 1.5 mM NEM (N-ethylmaleimide) at the indicated time interval. In the control samples, NEM was added with the labeled substrate at time zero. Transport rates were measured in 10 min, i.e., within the initial linear range of the time course, at 25 °C. After terminating the transport reaction, the external substrate was removed by chromatography on the Sephadex G-75 column, and the intraliposomal radioactivity was measured. The experimental values were corrected by subtracting the controls.
Figure 3 Identification of residue responsible for itaconate inhibition. (a) Dose–response analysis of the Cys mutants of CAC for the inhibition by itaconate was performed. Transport activity of the WT (○), C136A (●), C155A (Δ), C23V/C58V/C89S/C155V/C283S (▲), and C23V/C58V/C89S/C136V/C155V/C283S (□) was measured by adding 0.1 mM [^3H]carnitine after treatment by itaconate at the indicated concentrations. Transport activity (µmol/10 min/mg) is: WT 1.80 ± 0.31; C136A 0.91 ± 0.10; C155A 1.00 ± 0.17; C23V/C58V/C89S/C155V/C283S 1.02 ± 0.159; C23V/C58V/C89S/C136V/C155V/C283S 0.71 ± 0.22. (b) Dose–response analysis of proteoliposomes reconstituted native (○) or recombinant ORC (●) incubated with itaconate at the indicated concentrations. Transport activity was measured by adding 0.1 [^3H]ornithine, respectively, as described in Materials and Methods. The data are expressed as a percent of the controls (no addition of itaconate) and are means ± SD from three independent experiments.
Figure 4 Lysine contribution to CAC inhibition by itaconate. Protection of PLP (pyridoxal phosphate) from inhibition by itaconate on C-less CAC was carried out. C-less mutant (i.e., C23V/C58V/C89S/C136V/C155V/C283S) was reconstituted into proteoliposomes and treated or not treated with 30 mM PLP for 10 min (“Contr” or “PLP” column, respectively). […]

The target of a further assay is T2, CAC from HeLa cells (Homo sapiens, UniProt O43772).
T2 construct: CAC from mitochondria protein extract of HeLa cells treated with 10 mM DMI or vehicle (control) was reconstituted in proteoliposomes; endogenous in cells; host or cells: HeLa cells
T2 sequence (O43772 1-301): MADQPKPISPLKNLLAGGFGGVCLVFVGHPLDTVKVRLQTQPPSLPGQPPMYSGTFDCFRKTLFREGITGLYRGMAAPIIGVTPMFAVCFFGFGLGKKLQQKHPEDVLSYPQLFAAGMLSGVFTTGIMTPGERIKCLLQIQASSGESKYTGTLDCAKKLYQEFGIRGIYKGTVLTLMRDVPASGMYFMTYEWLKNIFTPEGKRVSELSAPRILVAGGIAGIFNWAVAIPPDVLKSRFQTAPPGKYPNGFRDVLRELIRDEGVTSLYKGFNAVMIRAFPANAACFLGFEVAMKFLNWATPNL
In words: HeLa cells treated with DMI, CAC extracted from mitochondria and reconstituted for transport assay. Type of assay: cell-based. As to conditions: 10 mM DMI, 45 min.
From the text: as §2
To test the transport activity of the CAC, 550 μL of proteoliposomes was passed through a Sephadex G-75 column to remove the external substrate. […] Transport rates were measured in 10 min, i.e., within the initial linear range of the time course, at 25 °C. After terminating the transport reaction, the external substrate was removed by chromatography on the Sephadex G-75 column, and the intraliposomal radioactivity was measured. […]
Figure 10 Effect of dimethyl itaconate (DMI) on CAC. […] Thus, the transport activity was measured for 10 min by adding to proteoliposomes 0.1 mM [^3H]carnitine. […] Transport activity in the presence or absence of DTE was measured as described in Materials and Methods. […]

Another assay addresses T3, recombinant CAC (WT) (Rattus norvegicus, UniProt P97521).
T3 construct: made in house; host or cells: E. coli C0214
T3 sequence (P97521 1-301): T1 sequence (P97521 1-301 C23V/C58V/C89S/C136V/C155V/C283S) with V23C, V58C, S89C, V136C, V155C, S283C
In words: [3H]carnitine/carnitine antiport in proteoliposomes reconstituted with recombinant WT CAC. To be noted: recombinant WT CAC, pH 6.5, 10 min incubation; read-out: IC50 for inhibition of transport at pH 6.5. Type of assay: biochemical. On the procedure:
as §1, §2, §3
Figure 1 Effect of itaconate on the native and recombinant mitochondrial carnitine/acylcarnitine (CAC). Dose–response analysis for itaconate inhibition was carried out using proteoliposomes reconstituted with native (○) or recombinant (●) CAC carriers. After 10 min of itaconate incubation, transport activity was started by adding 0.1 mM [^3H]carnitine and stopped after 10 min as described in Section 2. Percent of residual activity with respect to the control, without itaconate treatment, was reported. The values are the means ± SD from three independent experiments.
Figure 2 Effect of different pH on the inhibition of CAC protein by itaconate. (a) Proteoliposomes reconstituted with the recombinant CAC were incubated at various pHs (range pH 6.5–8.5) for 10 min with 10 mM itaconate. (b) Dose–response analysis of inhibition by itaconate of the recombinant CAC at pH 6.5. was performed. Proteoliposomes were incubated for 10 min at pH 6.5 with itaconate at the indicated concentrations. In both (a,b), the transport activity was measured for 10 min by adding to proteoliposomes 0.1 mM [^3H]carnitine.

Changes are numbered by the printed parent chain.

For `Cc1ncc(COP(=O)(O)O)c(C=O)c1O` [PLP, pyridoxal 5′-phosphate, reference compound], the inhibition (usually the relative decrease from the control value, in per cent) at 30000 µM in assay [1] (30 mM PLP for 10 min) is approximately 75%. In assay [1] (30 mM PLP, then G-75), the “reversibility of inhibition after removal of PLP by size exclusion chromatography (G-75)” value was “fully reversed”.
`C=C(CC(=O)OC)C(=O)OC` [dimethyl itaconate]: the “CAC transport activity after treatment of cells” value on CAC from HeLa cells is listed as “strongly inhibited”. In addition, the “reversal of inhibition by DTE” value at CAC from HeLa cells (DTE in transport assay) was “could not be reversed”. Moreover, the IC50 (commonly the point on the concentration scale where inhibition reaches its midpoint) at recombinant CAC (WT) is 20 ± 4.9 mM.
